Assay results reported in ChEMBL document CHEMBL1128167, “(3R, 4S)-3-Benzyl-4-bromomethyloxetan-2-one, a fast acting alternate substrate inhibitor of -chymotrypsin” (Bioorg Med Chem Lett, 1995).

Assays:
[1] = target: T1, Chymotrypsinogen B (Homo sapiens, UniProt P17538); assay: (§1) Inhibition of Alpha-chymotrypsin was determined by competitive substrate assay method
[2] = target: T1, Chymotrypsinogen B; assay: as §1; remark: listed apart in the source

T1 sequence (P17538 34-164 limits assumed, other chains not shown): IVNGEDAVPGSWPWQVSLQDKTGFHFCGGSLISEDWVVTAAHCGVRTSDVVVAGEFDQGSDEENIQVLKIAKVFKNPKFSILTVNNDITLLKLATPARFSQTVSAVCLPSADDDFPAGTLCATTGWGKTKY
T1 sequence (P17538 167-263 limits assumed, other chains not shown): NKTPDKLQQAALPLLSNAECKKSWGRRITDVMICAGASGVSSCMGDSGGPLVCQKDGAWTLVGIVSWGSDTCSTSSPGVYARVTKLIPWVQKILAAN

## O=C1O[C@H](CBr)[C@H]1Cc1ccccc1
[1]
  Ka: 2.94 min⁻¹
[2]
  Ki: 2.55 µM
